# Assay results reported in PubChem BioAssay (NCI).
#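 1) Cells in 96-well plates. 2) Compound, 48 h, 5 concentrations. 3) Linear interpolation between surrounding doses. 4) Unreached endpoint = highest concentration. Definition used: TGI = concentration required for complete inhibition of growth.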
# Assays:
# Assay in all cases: NCI tumour cell line growth inhibition, 48 h
# HOP-18 NSCLC = test system: HOP-18 NSCLC
# NCI/ADR-RES ovarian = test system: NCI/ADR-RES ovarian
# MDA-N = test system: MDA-N
# PC-3 prostate = test system: PC-3 prostate
# MCF7 breast = test system: MCF7 breast
SMILES,TGI (HOP-18 NSCLC) [µM],TGI (NCI/ADR-RES ovarian) [µM],TGI (MDA-N) [µM],TGI (PC-3 prostate) [µM],TGI (MCF7 breast) [µM]
O=c1nc2sc3ccc4ccccc4c3n2[nH]c1=O,> 100,,,,
C[C@]12CC[C@@H]3c4ccc(OCCN5CCCC5)cc4CC[C@H]3[C@@H]1CCC2=O,,> 100,64.3,> 100,48.2
